Columns and labels:
[1] = tested on: diet-induced (DIO) mice; assay: Body weight study in diet-induced (DIO) mice (Example 9); type: in vivo, C57BL/6NTac mice
Procedure: This example provides results of a study of DA plus another compound (CQL) on body weight in diet-induced (DIO) mice. Adult C57BL/6NTac mice were fed with a high fat diet (60%). […] The study period was for 56 days+2-3 days testing period afterward. Body weight change measure 3× per week, food and water consumption on days 0, 12, 28, 42 and 56. Metabolic biomarkers were measured on days 28 and 56. Cytokine analysis on Days 28 and 56. Serum levels of GLP-1, GLP-2, and CCK at 1 h after dosing on Days 1 and 56, and at 2 h after dosing on Day 7 (dosing (>6 h fasting prior to dosing until after blood collection); and serum level of PPY on Day 56.

[2] = tested on: mouse acute lung injury plus hyperthermia model; assay: Mouse acute lung injury plus hyperthermia model (Example 7); type: in vivo; settings: LPS plus hyperthermia, CD-1 mice
Procedure: Lung lavage fluid was measured and cytokine analysis.

[3] = tested on: mouse peritoneum macrophages; assay: LPS-stimulated mouse peritoneal macrophages, cytokine analysis (Example 5); type: cell-based, mice
Procedure: This example provides an in vivo study to determine the effect of DA on mouse peritoneum macrophages. Peritoneal exudates were obtained from Balb/c female mice by lavage 4 days after an intraperitoneal injection of 4 ml sterile 4% thioglycollate broth. After washing with RPMI 1640 medium, the cell suspensions were centrifuged at 800 g at 4° C. for 5 min. The red blood cells were eliminated by ACK buffer and the cells were washed and resuspended in RPMI 1640 supplemented with 10% inactivated FBS, 10 mM HEPES, 2 mM glutamine, and 100 U/ml penicillin-[…] streptomycin. The peritoneal macrophages were plated in 24 well tissue culture plate (2×10^5 cells/mL/well) at 37° C. in a 5% CO2 humidified atmosphere. Macrophages were precultured in serum-free RPMI 1640 medium for 24 h to reduce mitogenic effects. Macrophages were pretreated with various concentrations of DA for 1 h prior to LPS treatment and stimulated with LPS (100 ng/mL) for 24 h. Treatment groups were: [table]

[4] = tested on: murine air pouch model of inflammation; assay: Murine air pouch model of inflammation, LPS induction (Example 2); type: in vivo, C57BL/6 mice
Procedure: This example provides the results of investigating DA to modulate immune response in a murine air pouch model of inflammation. […] What was measured was infiltrating cell counts with air pouch exudates, IL-6 levels in air pouch exudates by an ELISA assay (R&D Systems Cat. No. M6000B), and multiple cytokine analysis (Mouse 32Plex Kit MilliporeSigma Cat. No. MCYTMAG70PMX32BK).
Duarte et al., Current Protocols in Pharmacology, 5.6.1-5.6.8 Mar. 2012, describes “The subcutaneous air pouch is an in vivo model that can be used to study acute and chronic inflammation, the resolution of the inflammatory response, and the oxidative stress response. Injection of irritants into an air pouch in rats or mice induces an inflammatory response that can be quantified by the volume of exudate produced, the infiltration of cells, and the release of inflammatory mediators. The model presented in this unit has been extensively used to identify potential anti-inflammatory drugs.” It can be used to study localized inflammation without systemic effects. But in this case the drug was administered orally, by gavage BID.
Test administration was 5 ml/kg body weight BID dosing with 8 hour intervals. The air pouch was created in each test BL6 mouse by sc injection of 1.5 ml/mouse of sterile air on day 0 and 1.5 ml/mouse of sterile air on day 3. Compounds (or control distilled water) were administered BID on day −2. LPS (0.75 mg/animal in 1 ml endotoxin free PBS) was administered at hour 0 or one hour after dosing with test compounds. Plasma samples were collected at termination and exudates of the air pouches for all groups. Cell count analysis and IL-6 assays were conducted at the animal facility and plasma and exudate samples were sent out for cytokine analysis.

[5] = DA 92.4 mg/kg gavage BID, vs vehicle
[6] = DA 92.4 mg/kg gavage BID, vs vehicle, no significant difference
[7] = gavage BID (DA 92.4 mg/kg, CQL 50 mg/kg)
[8] = 96.4 mg/kg BID gavage pre-treatment, LPS, vs vehicle
[9] = higher dose of DA, air pouch model, LPS

With `CC(=O)[O-].CC[N+](CC)(CC(=O)Nc1c(C)cccc1C)Cc1ccccc1` [DA, denatonium acetate] the Serum glucose levels ([1]; DA 92.4 mg/kg gavage BID) was “did not show a significant effect”, the “Serum GLP-1 levels at Day 56” value ([1]; DA 92.4 mg/kg gavage BID, 1 h after dosing, vs vehicle) was “significantly increased” and the “Serum GLP-1 levels at Day 7” value ([1]; DA 92.4 mg/kg gavage BID, 2 h after dosing, vs vehicle) was “significantly increased”. The “Body weight gain at day 57” value ([1]; DA 92.4 mg/kg gavage BID, compared to vehicle and CQL) was “significantly reduced”, the “Serum CCK levels at Day 56” value [1, 5] was “significantly increased” and the “Serum GLP-2 levels at Day 56” value [1, 5] was “significantly increased”. For the same compound, the “Serum PYY levels at Day 56” value [1, 5] was “significantly increased”, the “Serum insulin level at Day 28” value [1, 5] was “significantly reduced” and the “Serum LDL levels at day 28” value [1, 6] was “noticeable decrease”. For the same compound, the “Serum LDL levels at day 56” value [1, 6] was “noticeable decrease”, the “Serum HbA1c level at Day 28” value [1, 7] was “significantly reduced” and the “Serum HbA1c level at Day 56” value [1, 7] was “considerably increased”. The “Daily water intake at Day 28” value ([1]; gavage BID (DA 92.4 mg/kg, CQL 50 mg/kg), vs vehicle) was “significantly increased”, the “Protein concentration in lung lavage fluid” value ([2]; iv bolus 3 mg/kg QD) was “drastic but not significantly reduced” and the “Protein concentration in lung lavage fluid” value ([2]; oral 92.4 mg/kg BID) was “drastic but not significantly reduced”. The “GM-CSF: Significance @24 hour LPS incubation” value ([3]; DA 1 μM) was “No sig”, the “IFNγ: Significance @24 hour LPS incubation” value ([3]; DA 1 μM) was “No sig” and the “IL-1α: Significance @24 hour LPS incubation” value ([3]; DA 1 μM) was “No sig”. The “IL-1β: Significance @24 hour LPS incubation” value ([3]; DA 1 μM) was “No sig”, the “IL-2: Significance @24 hour LPS incubation” value ([3]; DA 1 μM) was “No sig” and the “IL-4: Significance @24 hour LPS incubation” value ([3]; DA 1 μM) was “No sig”. For the same compound, the “IL-6: Significance @24 hour LPS incubation” value ([3]; DA 1 μM) was “No sig”, the “IL-7: Significance @24 hour LPS incubation” value ([3]; DA 1 μM) was “No sig” and the “IL-10: Significance @24 hour LPS incubation” value ([3]; DA 1 μM) was “No sig”. For the same compound, the “IL-12 (p70): Significance @24 hour LPS incubation” value ([3]; DA 1 μM) was “No sig”, the “IL-13: Significance @24 hour LPS incubation” value ([3]; DA 1 μM) was “No sig” and the “IL-17A: Significance @24 hour LPS incubation” value ([3]; DA 1 μM) was “No sig”. The “KC/CXCL1: Significance @24 hour LPS incubation” value ([3]; DA 1 μM) was “No sig”, the “LIX: Significance @24 hour LPS incubation” value ([3]; DA 1 μM) was “No sig” and the “MCP-1: Significance @24 hour LPS incubation” value ([3]; DA 1 μM) was “No sig”. The “MIP-2: Significance @24 hour LPS incubation” value ([3]; DA 1 μM) was “No sig”, the “TNF-α: Significance @24 hour LPS incubation” value ([3]; DA 1 μM) was “No sig” and the “GM-CSF: Significance @24 hour LPS incubation” value ([3]; DA 10 μM) was “no sig”. For the same compound, the “IFNγ: Significance @24 hour LPS incubation” value ([3]; DA 10 μM) was “no sig”, the “IL-1α: Significance @24 hour LPS incubation” value ([3]; DA 10 μM) was “no sig” and the “IL-1β: Significance @24 hour LPS incubation” value ([3]; DA 10 μM) was “no sig”. The “IL-2: Significance @24 hour LPS incubation” value ([3]; DA 10 μM) was “no sig”, the “IL-4: Significance @24 hour LPS incubation” value ([3]; DA 10 μM) was “no sig” and the “IL-6: Significance @24 hour LPS incubation” value ([3]; DA 10 μM) was “no sig”. For the same compound, the “IL-7: Significance @24 hour LPS incubation” value ([3]; DA 10 μM) was “no sig”, the “IL-10: Significance @24 hour LPS incubation” value ([3]; DA 10 μM) was “no sig” and the “IL-12 (p70): Significance @24 hour LPS incubation” value ([3]; DA 10 μM) was “no sig”. For the same compound, the “IL-13: Significance @24 hour LPS incubation” value ([3]; DA 10 μM) was “no sig”, the “IL-17A: Significance @24 hour LPS incubation” value ([3]; DA 10 μM) was “no sig” and the “KC/CXCL1: Significance @24 hour LPS incubation” value ([3]; DA 10 μM) was “no sig”. For the same compound, the “LIX: Significance @24 hour LPS incubation” value ([3]; DA 10 μM) was “no sig”, the “MCP-1: Significance @24 hour LPS incubation” value ([3]; DA 10 μM) was “no sig” and the “MIP-2: Significance @24 hour LPS incubation” value ([3]; DA 10 μM) was “no sig”. For the same compound, the “TNF-α: Significance @24 hour LPS incubation” value ([3]; DA 10 μM) was “no sig”, the “GM-CSF: Significance @24 hour LPS incubation” value ([3]; DA 100 μM) was “no sig” and the “IFNγ: Significance @24 hour LPS incubation” value ([3]; DA 100 μM) was “no sig”. For the same compound, the “IL-1α: Significance @24 hour LPS incubation” value ([3]; DA 100 μM) was “no sig”, the “IL-1β: Significance @24 hour LPS incubation” value ([3]; DA 100 μM) was “no sig” and the “IL-2: Significance @24 hour LPS incubation” value ([3]; DA 100 μM) was “no sig”. For the same compound, the “IL-4: Significance @24 hour LPS incubation” value ([3]; DA 100 μM) was “no sig”, the “IL-6: Significance @24 hour LPS incubation” value ([3]; DA 100 μM) was “no sig” and the “IL-7: Significance @24 hour LPS incubation” value ([3]; DA 100 μM) was “no sig”. The “IL-10: Significance @24 hour LPS incubation” value ([3]; DA 100 μM) was “no sig”, the “IL-12 (p70): Significance @24 hour LPS incubation” value ([3]; DA 100 μM) was “no sig” and the “IL-13: Significance @24 hour LPS incubation” value ([3]; DA 100 μM) was “no sig”. The “IL-17A: Significance @24 hour LPS incubation” value ([3]; DA 100 μM) was “no sig”, the “KC/CXCL1: Significance @24 hour LPS incubation” value ([3]; DA 100 μM) was “no sig” and the “LIX: Significance @24 hour LPS incubation” value ([3]; DA 100 μM) was “no sig”. For the same compound, the “MCP-1: Significance @24 hour LPS incubation” value ([3]; DA 100 μM) was “no sig”, the “MIP-2: Significance @24 hour LPS incubation” value ([3]; DA 100 μM) was “no sig” and the “TNF-α: Significance @24 hour LPS incubation” value ([3]; DA 100 μM) was “no sig”. The “IL-6 levels in air pouch exudates” value [4, 8] was “significantly lower”, the “Infiltrating cell count in air pouch exudates” value [4, 8] was “significantly lower” and the IL-1b cytokine level [4, 9] was “significant reduction”. For the same compound, the IL-10 cytokine level [4, 9] was “significant reduction”, the IL-17 cytokine level [4, 9] was “significant reduction” and the TNF-1a cytokine level [4, 9] was “significant reduction”. For the same compound, the “Infiltrating cell counts in air pouch exudates following LPS induction” value ([4]; pre-treatment by gavage BID, in a dose-dependent manner) was “decreased”.
